# Reference: US11350632B2, “Methods, compositions and systems for killing arthropods” (Imerys USA, Inc., priority 2016, dated 2022)
# How the values were obtained:
# Assay in all cases: Field trial weekly bioassay on pre-treated substrate
# Assay type in all cases: in vivo
# [1] = test system: Culex quinquefasciatus; set-up: concentration or dose not given beside the values
# Protocol: (§1) During a field trial in New Orleans, bioassays were performed with (1) the expanded, milled ultrafine perlite of Example 1, (2) a lambda-cyhalothrin insecticide (BASF) as positive control, and (3) a negative control (water only). Six samples of each insecticide (1) and (2) and the control (3) were tested against mosquito species Aedes aegypti (dengue and zika vector), Aedes albopictus (tiger mosquito), and Culex quinquefasciatus (nuisance mosquito) by spraying wood chips stored under houses using a STIHL SR 200 backpack sprayer (18 houses total). The houses were selected based on housing structure (raised house), backyard vegetation (green and lush), and location (suburban neighborhood).
# (§2) The lambda cyhalothrin (industry standard insecticide) was prepared according to manufacturer instructions. Lambda cyhalothrin insecticide was diluted with water for spray application. First the application tank was filled with one-half to three-fourths volume of water. The pH of the water was controlled between 5 and 7 using a buffering agent if necessary to adjust the pH. Next, lambda cyhalothrin insecticide was slowly added to the applicator tank water with maximum agitation. Finally, the tank was filled to the desired volume with continuous agitation while applying the spray. To prepare the perlite insecticide spraying solutions, two-thirds of a gallon of water, 0.32 ounces of non-ionic surfactant (Ninex MT615), and 2 lbs expanded, milled ultrafine perlite were thoroughly blended together in a spray tank. Another one-third gallon of water was then added for a total 1 gallon of spray solution containing 20% of ultrafine perlite mechanical insecticide, 79% of water and 1% of Ninex MT615 as dispersant. The ultrafine perlite solution was mixed directly prior to spraying.
# (§3) The ultrafine perlite insecticide, the positive control (lambda cyhalothrin) and the negative control (water) were sprayed directly under the raised houses and porches (which included eaves if reachable) and under vegetation with an applicator. Pre-treated substrates were also prepared for each location by applying the corresponding insecticide or control to a piece of pine. The target coverage was 5-8 ounces per 100 ft^2, with an average coverage of about 10 g/m^2 to 15 g/m^2.
# (§4) Adult mosquitos for each species were introduced to each location, and were identified and counted two weeks prior to the start of the bioassays. Weekly bioassays were performed to test the efficacy of the insecticides over time by collecting a pre-treated substrate from each site and placing ˜10 female mosquitos of the corresponding species into a labeled bioassay cup with the substrate. The cup was then placed in a growth chamber/counter (depending on temperature) for 1 hour and then 24 hours with sugar solution. The number of dead and live mosquitos was recorded and compared to determine the percent mortality. Results are shown in Tables 8-10, in which 100% indicates complete mortality of mosquitoes and 0% indicates zero mortality (no mosquito deaths).
# [2] = test system: Aedes albopictus; set-up: concentration or dose not given beside the values
# Protocol: as §1, §2, §3, §4
# [3] = test system: Aedes aegypti; set-up: mortality found (summary of field trial): concentration or dose not given beside the values
# Protocol: as §1, §2, §3, §4
# [4] = Week 0, ~10 female mosquitos with pre-treated substrate
# [5] = week not stated, each mosquito species
structure (smiles),measurement,setting,value
"CC1(C)[C@H](C(=O)O[C@H](C#N)c2cccc(Oc3ccccc3)c2)[C@@H]1/C=C(\Cl)C(F)(F)F (racemic) [Lambda cyhalothrin, lambda-cyhalothrin]",Mortality (%) of Culex quinquefasciatus,[1]; [4],0%
same,Mortality (%) of Culex quinquefasciatus,[1]; Week 1,0%
same,Mortality (%) of Culex quinquefasciatus,[1]; Week 2,100%
same,Mortality (%) of Culex quinquefasciatus,[1]; Week 3,100%
same,Mortality (%) of Culex quinquefasciatus,[1]; Week 4,97%
same,Mortality (%) of Culex quinquefasciatus,[1]; Week 5 (heavy rainfall),100%
same,Mortality (%) of Culex quinquefasciatus,[1]; Week 6,93%
same,Mortality (%) of Culex quinquefasciatus,[1]; Week 7,100%
same,Mortality (%) of Culex quinquefasciatus,[1]; Week 8,100%
same,mortality found (summary of field trial),[1]; [5],100%
same,Mortality (%) of Andes albopictus,[2]; [4],0%
same,Mortality (%) of Andes albopictus,[2]; Week 1,0%
same,Mortality (%) of Andes albopictus,[2]; Week 2,100%
same,Mortality (%) of Andes albopictus,[2]; Week 3,100%
same,Mortality (%) of Andes albopictus,[2]; Week 4,100%
same,Mortality (%) of Andes albopictus,[2]; Week 5 (heavy rainfall),100%
same,Mortality (%) of Andes albopictus,[2]; Week 6,100%
same,Mortality (%) of Andes albopictus,[2]; Week 7,100%
same,Mortality (%) of Andes albopictus,[2]; Week 8,100%
same,mortality found (summary of field trial),[2]; [5],100%
same,Mortality (%) of Andes aegypti,[3]; [4],0%
same,Mortality (%) of Andes aegypti,[3]; Week 1,0%
same,Mortality (%) of Andes aegypti,[3]; Week 2,100%
same,Mortality (%) of Andes aegypti,[3]; Week 3,100%
same,Mortality (%) of Andes aegypti,[3]; Week 4,100%
same,Mortality (%) of Andes aegypti,[3]; Week 5 (heavy rainfall),100%
same,Mortality (%) of Andes aegypti,[3]; Week 6,100%
same,Mortality (%) of Andes aegypti,[3]; Week 7,100%
same,Mortality (%) of Andes aegypti,[3]; Week 8,100%
same,mortality found (summary of field trial),[3]; [5],100%
